{"source": "patent EP1927378A1", "about": "“Hair-treatment compositions comprising quercetin and use thereof to revitalize hair” (Henkel Kommanditgesellschaft auf Aktien, priority 2006, dated 2008)", "format_in_all_cases": "cell-based", "key": {"[1]": {"test_system": "organotypischen Zellkulturen", "experiment": "ATP production (ATPLite-M luminescence assay) in organotypic cell cultures", "conditions": "24 h", "excerpt": "ATP (Adenosintriphosphat) ist die universelle Speicherform für chemische Energie in Zellen. Bei der Abspaltung der distalen Phosphatgruppe entsteht ADP und Pi (anorganisches Phosphat). Diese Reaktion ist stark exergon, d.h. es wird Energie frei. Produziert wird ATP beim zellulären, oxidativen Abbau von Fetten, Kohlehydraten und Proteinen. Es dient als Energielieferant für biochemische Synthesen, für Transportvorgänge (aktiver Transport) und für mechanische Arbeit. Diese Vorgänge sind endergon, d.h. sie laufen nur unter Energiezufuhr ab. Um ihren Stoffwechsel optimal aufrecht zu erhalten, sind Zellen also auf eine ausreichende Versorgung mit ATP angewiesen. Auch dermale Papillenzellen benötigen beispielsweise zur Produktion von Wachstumsfaktoren und damit zur Steuerung des Haarzyklus ATP. Die Proliferation und Differenzierung von Haarschaftkeratinozyten ist ebenfalls an die ATP-Synthese gekoppelt, da für beide Vorgänge die Biosynthese spezifischer Proteine essentielle Voraussetzung ist. Kann durch ein Produkt die ATP-Syntheserate der haarrelevanten Zellen erhöht werden, so steht den Zellen mehr Energie zur Verfügung um Stoffwechselvorgänge und zelluläre Strukturen aufrecht zu erhalten, und um Strukturen zu erneuern, z.B. bei Reparaturprozessen oder dem Neuaufbau von Haaren.\nDie ATP-Bestimmungen erfolgten mit Hilfe des ATPLiteTM-M Assays (Packard). […]"}, "IGFBP3": {"test_system": "IGFBP3", "experiment": "Differential gene expression by quantitative RT-PCR in dermal papilla cells: IGFBP3", "conditions": "for Expression IGFBP3, Mittelwert: 24 h, untreated control = 1, spread in brackets", "excerpt": "(§1) Hepatocyte Growth Factor (HGF) und Keratinocyte Growth Factor (KGF) sind wichtige Wachstumsfaktoren, die von den dermalen Papillenzellen synthetisiert werden. Im Speziellen stimuliert HGF das Follikelwachstum und KGF die Keratinozytenproliferation. Entsprechend werden HGF und KGF in der Wachstumsphase vermehrt exprimiert. Diesen Eigenschaften gegenüber steht die Expression von IGFBP-3. Dieses Genprodukt führen zu einer Verschiebung des Zyklus von der Wachstums- zur Regressionsphase. Nach Applikation von Substanzen, die Effekte am biologisch aktiven Teil des Haares hervorrufen, könnte die Bestimmung der Veränderungen der Expression dieser Gene Aussagen über Haarwuchsstimulantien oder -inhibitoren liefern. Die differentielle Genexpression wurde mittels quantitatitiver RT-PCR (Reverse-Transkription Polymerase Kettenreaktion) bestimmt. Nach Anzucht der dermalen Papillenzellen wurden diese für 24 h mit Dihydroquercetin in der Konzentration von 8,8 und 88 µM (entspricht Extrakt der Sibirischen Lerche von 0,003% und 0,0003%) inkubiert. Zur Durchführung der PCR wird zunächst mit Hilfe des RNeasy Mini Kits der Fa. Qiagen die RNA aus den dermalen Papillenzellen isoliert und mittels reverser Transkription in cDNA umgeschrieben. Bei der anschließenden PCR Reaktion, die mit Hilfe genspezifischer Primer für die jeweiligen haarrelevanten Gene durchgeführt wird und die der Amplifikation der gesuchten Genabschnitte dient, wird die Bildung der PCR-Produkte online über ein Fluoreszenzsignal detektiert. Das Fluoreszenzsignal ist dabei proportional zur Menge des gebildeten PCR-Produktes. Je stärker die Expression eines bestimmten Gens ist, desto größer ist die Menge an gebildetem PCR-Produkt und um so höher ist das Fluoreszenzsignal. Zur Quantifizierung der Genexpression wird die unbehandelte Kontrolle gleich 1 gesetzt und die Expression der zu bestimmenden Gene darauf bezogen (x-fache Expression). Dabei werden Werte, die größer/gleich der 2fachen Expression oder kleiner/gleich der 0.5fachen Expression der unbehandelten Kontrolle sind als signifikant differentiell exprimiert eingestuft. […]"}, "HGF [2]": {"test_system": "HGF", "experiment": "Differential gene expression by quantitative RT-PCR in dermal papilla cells: HGF", "conditions": "for Expression HGF, Mittelwert: 24 h, untreated control = 1, spread in brackets", "excerpt": "as §1"}, "KGF [3]": {"test_system": "KGF", "experiment": "Differential gene expression by quantitative RT-PCR in dermal papilla cells: KGF", "conditions": "for Expression KGF, Mittelwert: 24 h, untreated control = 1, spread in brackets", "excerpt": "as §1"}, "KGF [4]": {"test_system": "KGF", "experiment": "KGF release into medium (ELISA) from dermal papilla cells", "conditions": "for Relative Ausschüttung von KGF, Mittelwert [%]: 24 h, untreated sample = 100, spread in brackets", "method": "Der Keratinozyten Wachstumsfaktor Factor (KGF) ist ein äußerst wichtiger Regulator des Haars. Bei einer potentiell wachstumsfördernden und das Haar stärkenden Aktivsubstanz kann von einer Steigerung der ins Medium ausgeschütteten Faktoren ausgegangen werden. Die Ausschüttung von KGF kann mit Hilfe von kommerziell erhältlichen ELISA-Kits quantifiziert werden. Dazu wurden die dermalen Papillenzellen über 24 Stunden mit Dihydroquercetin in der Konzentration von 8,8 und 88 µM (entspricht Extrakt der Sibirischen Lerche von 0,003% und 0,0003%) inkubiert und die Konzentration des Wachstumsfaktors im Medium in beschriebener Weise quantifiziert. Tabelle 3: Relative Ausschüttung von KGF in [%] nach Behandlung der dermalen Papillenzellen im Vergleich zur unbehandelten Probe."}, "KGF [5]": {"test_system": "KGF", "experiment": "KGF release into medium (ELISA) from organotypic hair follicle cell cultures", "conditions": "88 µM", "excerpt": "(§2) Hepatocyte Growth Factor (HGF) und Keratinocyte Growth Factor (KGF) sind wichtige Wachstumsfaktoren, die von der dermalen Papille ausgeschüttet werden, um die Proliferation der Haarschaftkeratinozyten, die für die Synthese der Haarkeratine verantwortlich sind, zu steuern. Sie sind außerdem charakteristische Marker für die Anagenphase, in der auch die Keratinsynthese maximal ist. Darüber hinaus ist zu beachten, dass bei der Haaralterung das Proliferationsvermögen der Haarfollikelzellen abnimmt. Die Ausschüttung von HGF sowie KGF kann mit Hilfe von kommerziell erhältlichen ELISA-Kits quantifiziert werden. Dazu werden organotypische Haarfollikelzellkulturen über 72h mit Dihydroquercetin in der Konzentration 88 µM (entspricht Extrakt der Sibirischen Lerche von 0,003%) inkubiert und die Konzentration der Wachstumsfaktoren im Medium in beschriebener Weise bestimmt. Tabelle 4: Relative Ausschüttung von HGF und KGF in [%] nach Behandlung von organotypischen Haarfollikelzellkulturen im Vergleich zu unbehandelten Kontrollen."}, "HGF [6]": {"test_system": "HGF", "experiment": "HGF release into medium (ELISA) from organotypic hair follicle cell cultures", "conditions": "88 µM", "excerpt": "as §2"}, "[7]": {"test_system": "\"Outer Root Sheath\" Keratinozyten", "experiment": "Layer thickness of ORS keratinocytes in organotypic cell culture model (histology)", "conditions": "88 µM, 72 h", "excerpt": "Physiologische Effekte der Behandlung mit potentiellen Wirkstoffen hinsichtlich einer Verdickung des Haares kann anhand einer Steigerung der Schichtdicke der \"Outer Root Sheath\" Keratinozyten im organotypischen Zellkulturmodell bestimmt werden. Dazu werden jeweils drei Modelle nach 72 stündiger Inkubation mit Wirkstoff oder mit Referrenzmedium histologisch analysiert: Fixation in 4 % Paraformaldehyd, Färbung mittels Propidiumiodid und mikroskopische Analyse. Im Folgenden wird die Dicke der ORS Keratinozytenschicht des organptypischen Modells randomisiert vermessen und die Ergebnisse werden in Relation zur unbehandelten Kontrolle dargestellt. Tabelle 5: Steigerung der Schichtdicke nach Behandlung der organptypischen Zellkultur mit Dihydroquercetin in der Konzentration von 88 µM (entspricht Extrakt der Sibirischen Lerche von 0,003%) in % im Vergleich zur unbehandelte Probe"}, "hHa3-I": {"test_system": "hHa3-I", "experiment": "Hair keratin expression by quantitative real-time PCR in organotypic cell cultures: hHa3-I", "conditions": "88 µM, 24 h after application", "excerpt": "(§3) Hepatocyte Growth Factor (HGF) und Keratinocyte Growth Factor (KGF) sind wichtige Wachstumsfaktoren, die von den dermalen Papillenzellen synthetisiert werden. Im Speziellen stimuliert HGF das Follikelwachstum und KGF die Keratinozytenproliferation. Entsprechend werden HGF und KGF in der Wachstumsphase vermehrt exprimiert. Diesen Eigenschaften gegenüber steht die Expression von IGFBP-3. Dieses Genprodukt führen zu einer Verschiebung des Zyklus von der Wachstums- zur Regressionsphase. […] Die differentielle Genexpression wurde mittels quantitatitiver RT-PCR (Reverse-Transkription Polymerase Kettenreaktion) bestimmt. […] Zur Quantifizierung der Genexpression wird die unbehandelte Kontrolle gleich 1 gesetzt und die Expression der zu bestimmenden Gene darauf bezogen (x-fache Expression). […]\n(§4) Die Festigkeit der Haare und die Haarstruktur ist im Wesentlichen von der Zusammensetzung spezieller haarspezifischer Strukturproteine abhängig, den Haarkeratinen. […] Die Expression verschiedener Haarkeratine organotypischen Modellen kann mit Hilfe des in Beispiel 8 beschriebenen quantitativen Real-Time-PCR-Verfahrens untersucht werden. Zur Quantifizierung der Genexpression wird die Lösungsmittelkontrolle gleich 1 gesetzt und die Expression der zu bestimmenden Gene darauf bezogen (x-fache Expression). […]"}, "hHa4": {"test_system": "hHa4", "experiment": "Hair keratin expression by quantitative real-time PCR in organotypic cell cultures: hHa4", "conditions": "88 µM, 24 h after application", "excerpt": "as §3, §4"}, "[8]": {"conditions": "dermal papilla cells, 24 h treatment"}, "[9]": {"conditions": "organotypic hair follicle cell cultures, 72 h, untreated control = 100, spread in brackets"}, "[10]": {"conditions": "control = 1, spread in brackets"}}, "data": [{"smiles": "O=C1c2c(O)cc(O)cc2OC(c2ccc(O)c(O)c2)C1O", "note": "(stereo not drawn) [Dihydroquercetin, 2-(3.4-dihyrdroxy-phenyl)-3 5 7-trihydroxy-chroman-4-one]", "values": [{"measurement": "ATP-Produktion von organotypischen Zellkulturen in %, Mittelwert (Standardabweichung)", "setting": "[1]; 88 µM (= 0,003% Extrakt der Sibirischen Lerche), untreated sample = 100", "value": "138 (10) %"}, {"measurement": "Steigerung der ATP-Produktion gegenüber der unbehandelten Kontrolle", "setting": "[1]; organotypic cell cultures, 88 µM", "value": 38, "unit": "%"}, {"measurement": "Expression IGFBP3, Mittelwert", "setting": "IGFBP3; dermal papilla cells, 88 µM", "value": "0,63(0,13) x-fache Expression"}, {"measurement": "Expression IGFBP3, Mittelwert", "setting": "IGFBP3; dermal papilla cells, 8,8 µM", "value": "0,72 (0,04) x-fache Expression"}, {"measurement": "Genexpression von IGFBP-3 (result in words)", "setting": "IGFBP3; [8]", "value": "tendenziellen verminderten Expression"}, {"measurement": "Expression HGF, Mittelwert", "setting": "HGF [2]; dermal papilla cells, 88 µM", "value": "3,62(2,11) x-fache Expression"}, {"measurement": "Expression HGF, Mittelwert", "setting": "HGF [2]; dermal papilla cells, 8,8 µM", "value": "2,90 (1,18) x-fache Expression"}, {"measurement": "Genexpression von HGF (result in words)", "setting": "HGF [2]; [8]", "value": "tendenziell"}, {"measurement": "Expression KGF, Mittelwert", "setting": "KGF [3]; dermal papilla cells, 88 µM", "value": "2,18 (0,27) x-fache Expression"}, {"measurement": "Expression KGF, Mittelwert", "setting": "KGF [3]; dermal papilla cells, 8,8 µM", "value": "2,71 (0,36) x-fache Expression"}, {"measurement": "Genexpression von KGF (result in words)", "setting": "KGF [3]; [8]", "value": "signifikanten Induktion"}, {"measurement": "Relative Ausschüttung von KGF, Mittelwert [%]", "setting": "KGF [4]; dermal papilla cells, 88 µM", "value": "176 (16,7) %"}, {"measurement": "Relative Ausschüttung von KGF, Mittelwert [%]", "setting": "KGF [4]; dermal papilla cells, 8,8 µM", "value": "173 (17,6) %"}, {"measurement": "Freisetzung von KGF (result in words)", "setting": "KGF [4]; dermal papilla cells, 8,8 and 88 µM", "value": "signifikant erhöhten Freisetzung"}, {"measurement": "Relative Ausschüttung von KGF, Mittelwert [%]", "setting": "KGF [5]; [9]", "value": "126 (7) %"}, {"measurement": "Freisetzung von KGF (result in words)", "setting": "KGF [5]; organotypic hair model", "value": "Aktivierung der Freisetzung"}, {"measurement": "Relative Ausschüttung von HGF, Mittelwert [%]", "setting": "HGF [6]; [9]", "value": "142 (15) %"}, {"measurement": "Freisetzung des Hepatozyten Wachstumsfaktor (HGF) (result in words)", "setting": "HGF [6]; organotypic hair model", "value": "erhöhte Freisetzung"}, {"measurement": "Steigerung der ORS Keratinozytenschichtdicke", "setting": "[7]; called tendential", "value": 11, "unit": "%"}, {"measurement": "Schichtdicke in % im Vergleich zur unbehandelte Probe, Mittelwert", "setting": "[7]; control = 100, spread in brackets", "value": "111 (4) %"}, {"measurement": "Keratinexpression hHa3-I (result in words)", "setting": "hHa3-I", "value": "Steigerung der Keratinexpression"}, {"measurement": "Haarkeratinexpression hHa3-I", "setting": "hHa3-I; [10]", "value": "4,1 (1,5) x-fache Expression"}, {"measurement": "Keratinexpression hHa4 (result in words)", "setting": "hHa4", "value": "Steigerung der Keratinexpression"}, {"measurement": "Haarkeratinexpression hHa4", "setting": "hHa4; [10]", "value": "4,1 (1,6) x-fache Expression"}]}]}
